First the molecules themselves.
B1: ligE: Sphingomonas paucimobilis beta-etherase LigE, positive control polypeptide (protein)
chain: MARNNTITLYDLQLESGCTISPYVWRTKYALKHKGFDIDIVPGGFTGILERTGGRSERVPVIVDDGEWVLDSWVIAEYLDEKYPDRPMLFEGPTQKNLMKFLDNWLWSTAVGPWFRCYILDYHDLSLPQDRDYVRWSREQWFLGGQRLEDVQAGREDRLPLVPPTLEPFRRILAETKWLGGDQPNFADYSALAVFLWTASVARTPPLTEDDPLRDWLDRGFDLFDGLGRHPGMNPLFGLKLREGDPEPFVRQTGPAGAGGQALNKGPQTTKMPPRVAEKAD
B2: ligE1: Novosphingobium aromaticivorans putative beta-etherase, glutathione S-transferase-like polypeptide, GenBank ABD26841.1, expressed in E. coli (protein)
chain: MAANNTITFYDLALSTGATISPFVWATKYALKHKGFDLDVVPGGFTGILERTGGKTERLPAIVDDGEFVLDSWGIVEYLDAKYPDRPVLIPHESVAATLKALDNWFWNAAVGPWMFCFCQDYRDLSLPQDHEYVTHSREKMLGRKLEEVQAGREERLPKISAALEPLRAALAQHQWLGGSSPNYADYRIMGGILFTASVCKTPVLANDDPLRDWIERCLDLYGGLGRHPGLFPLFGLEQREGDPDLFNRAAGQGGIYKRNTGPESTRAETQRITEGMKK
B3: LigF2: Novosphingobium aromaticivorans putative beta-etherase, glutathione S-transferase-like polypeptide LigF-2 (protein)
chain: MALKYYHAEPLANSLKSMVPLKEKGLAYESIYVDLHKFEQHQPWFTAINPEGQVPVLDHDGTIITHTTVINEYLEDAFPDAQPADAPLRPRDPVGAARMRYWNKFIDEHVMNYVSMHGWHRMVGVIARNIASGDFEKLLESIPLPDQRKKWATARSGFSEADLANATAKIEYALDKVEKQLGETKWLAGDTYTLADINFYSHCGAMVERMFPEMEVARRAPRLCEWRDRVAARPAVAEALKSEDRTAPGLRVWSGEVR
B4: LigF: Sphingomonas paucimobilis beta-etherase LigF, positive control polypeptide (protein)
chain: MTLKLYSFGPGANSLKPLATLYEKGLEFEQVFVDPSKFEQHSDWFKKINPRGQVPALWHDGKVVTESTVICEYLEDVFPESGNSLRPADPFKRAEMRVWTKWVDEYFCWCVSTIGWAFGIKAIAQKMSDEEFEEHINKNVPIPEQQLKWRRARNGFPQEMLDEEFRKVGVSVARLEETLSKQDYLVDTGYSLADICNFAIANGLQRPGGFFGDYVNQEKTPGLCAWLDRINARPAIKEMFEKSKREDLLKRQNEKVA
B5: ABD27309.1: Novosphingobium aromaticivorans putative beta-etherase polypeptide LigF-3 (protein)
chain: MDEVSLYHWEPNANSGKPMLALMEKGVPFSSHYIDMLQFDQHKPEYLAINPQGTIPAMTHNGQVLTESTAIMEYVNDRFDGPDLMPADAQDRWRVRWWMKFMDQWLGPSFSMIGWSVFVGPMVRQRDPAELAAAIDRIPLPERRTAWRKAINGDFSESEMAESRRRVGLGIAKLEEELGKRPYVGSNQYSLADINIFNSTYSLPISQPDLAGKDRTPNIMRWLKRVYTREAVKKTWAMGKTDLAHRYGLIMAEIEG
B6: ABD26530.1: Novosphingobium aromaticivorans putative beta-etherase polypeptide LigF-1 (protein)
chain: MVIPLGEDNTIMLKLYSFGPAANSMKPLLTVFEKGLDVEKHRLDPAKFEHHTDWFKAINPRGQVPALVDGDKVVTESTVICEYLEDEYPTEVALRPADSFGKAQMRIWTKWVDEYFCWCVSTIGWHRYVGNMVKSLSDAEFEEKVKAIPVIEQQVKWRRAREGFPQDMLDEEMRKIAYSVRKLDDHLADHEWLVPGQYTLADICNFAIANGMQFGFAELVNKQDTPHLVRWIEQINERPAVKQMFAQVELEKLGPRE

The first data set relates to Saccharomyces cerevisiae.
Assay: not given
Conditions: stated as background; cited from earlier work.
Turning to `COc1ccc(C=O)cc1OC` [Veratraldehyde], the “antifungal activities against the yeast Saccharomyces cerevisiae” value (“antifungal activities” for short) is on record as “significant antifungal activities”.

For the molecule `O=C(O)C=Cc1ccccc1` [cinnamic acid], the “antifungal activities” value is “significant antifungal activities”.

As for `O=C(O)/C=C/c1cccc(O)c1` [m-coumaric acid], the “antifungal activities” value is on record as “significant antifungal activities”.

Take `O=C(O)/C=C/c1ccccc1O` [o-coumaric acid]: the “antifungal activities” value is “significant antifungal activities”.

With `O=C(O)/C=C/c1ccc(O)cc1` [p-coumaric acid], the “antifungal activities” value is “significant antifungal activities”.

With `COc1cc(C(=O)O)ccc1O` [vanillic acid], the “antifungal activities” value is given as “significant antifungal activities”.

With `COc1cc(CCC(C)=O)ccc1O` [vanillylacetone], the “antifungal activities” value is given as “significant antifungal activities”.

System in the next data set: not listed separately
As to the kind of experiment: in vitro biochemical assay for beta-etherase activity on fluorescent substrate MUAV (4MU formation). Conditions: E. coli cell extracts expressing the protein; 0.1 mM MUAV substrate. From the text: The model substrate synthesis 150 for use in the biochemical screening for selective activity can be outsourced through a contract research organization (CRO). The enzyme discovery effort can initially be focused on identifying potential beta-etherase candidate genes identified through bioinformatic methods. […] The fluorescent substrate α-O-(β-methylumbelliferyl) acetovanillone (MUAV), for example, can be used in in vitro assays to identify beta-etherase function (Acme Biosciences, Mt. View, Calif.). The formation of 4 methylumbelliferone (4MU) upon hydrolysis of the aryl ether bond can be monitored by fluorescence, for example, at λex=365 nm and λem=450 nm (or 460 nm).
The enzyme screening 155 is done to identify novel etherases 160. […] Expression of the beta-etherase genes can be done in 5 ml or 25 ml samples of the recombinant E. coli strains in LB medium using induction with IPTG. Following induction, and cell harvest, cell pellets can be lysed using the BPER (Invitrogen) cell lysis system. […] The formation of 4 methylumbelliferone (4MU) upon hydrolysis of the aryl ether bond in MUAV can be monitored by fluorescence at λex=365 nm and λem=460 nm, and can provide quantitative measurement of beta-etherase function. Cell extracts of E. coli transformed with the S. paucimobilis ligE and ligF genes can be the assay positive controls. Test or unknown samples can include, for example, E. coli strains expressing putative beta-etherase genes from N. aromaticovorans.
This example describes a method for gene expression in E. coli, as well as beta-etherase biochemical assays. Expression of known and putative beta-etherase genes was performed using 5 ml cultures of the recombinant E. coli strains described herein in Luria Broth medium by induction of gene expression using isopropylthiogalactoside (IPTG) to a final concentration of 0.1 mM. Following induction, and cell harvest, the cells were disrupted using either sonication or the BPER (Invitrogen) cell lysis system.
In vitro reactions were performed in a total volume of 200 ul and contained: 25 mM TrisHCl pH 7.5; 0.5 mM dithiothreitol; 1 mM glutathione; 0.05 mM or 0.1 mM MUAV; 10 ul of clarified cell extract used to initiate the reactions. Following incubation for 2.5 hours at room temperature, a 50 ul sample of the reactions was terminated using 150 uL of 300 mM glycine/NaOH buffer pH 9. The formation of 4 methylumbelliferone (4MU) upon hydrolysis of the aryl ether bond was monitored by the increase in fluorescence at λex=360 nm and λem=450 nm using a Spectramax UV/visible/fluorescent spectrophotometer.
The total protein concentrations of the cell lysates were determined using the BCA reagent system for protein quantification (Pierce).
Induction might be also performed using IPTG concentrations in the range of 0.01-1 mM. Cell disruption might be also performed using toluene permeabilization, French, pressure techniques, or using multiple freeze/thaw cycles in conjunction with lysozyme. Assay conditions might be varied to include TrisHCl at 10-150 mM concentrations and in the pH range of 6.5-8.5; 0-2 mM dithiothreitol; 0.05-2 mM glutathione; 0.01-5 mM MUAV substrate; 22-42° C. reaction temperatures. The biochemical assay might be performed as a fixed time point assay with reaction times ranging from 5 minutes-12 hours, or performed continuously without quenching with glycine/NaOH buffer to extract enzyme kinetic parameters.
With B1, the “total activity (beta-etherase)” value was determined as 7 rfu/ug.

Consider B2, for which the “total activity (beta-etherase)” value is reported as 529 rfu/ug.

B3: the “total activity (beta-etherase)” value came to 1206 rfu/ug.

Turning to B4, the “total activity (beta-etherase)” value is 558 rfu/ug.

Still in this data set, the particulars now being: MUAV substrate; compared with S. paucimobilis LigF.
As to B3, the “efficiency relative to S. paucimobilis LigF protein” value is on record as “approximately 2 fold”.

The same data set, now with this note: MUAV substrate; compared with S. paucimobilis ligE.
For B2, the “efficiency relative to S. paucimobilis ligE beta-etherase” value is given as “approximately 75 fold”.

Staying with this data set, now noted: recombinant polypeptide expressed in E. coli.
Consider B5, for which the “beta-etherase activity on the MUAV substrate (in words)” value (“beta-etherase activity … (in words)” below) was “beta-etherase activity”.

As for B2, the “beta-etherase activity … (in words)” value is recorded as “beta-etherase activity”.

Turning to B3, the “beta-etherase activity … (in words)” value is “beta-etherase activity”.

In the case of B6, the “beta-etherase activity … (in words)” value is “beta-etherase activity”.

The next data set relates to Escherichia coli.
Assay: not given
Conditions: benzaldehyde derivatives; stated as demonstrated; cited from earlier work.
In the case of `O=Cc1ccc(O)c(O)c1O` [2,3,4-trihydroxybenzaldehyde], the “antibacterial activity against Escherichia coli” value is recorded as “antibacterial activity”.

Regarding `O=Cc1cccc(O)c1O` [2,3-dihydroxybenzaldehyde], the “antibacterial activity against Escherichia coli” value was “antibacterial activity”.

As for `O=Cc1c(O)cc(O)cc1O` [2,4,6-trihydroxybenzaldehyde], the “antibacterial activity against Escherichia coli” value is recorded as “antibacterial activity”.

Consider `O=Cc1ccc(O)cc1O` [2,4-dihydroxybenzaldehyde], for which the “antibacterial activity against Escherichia coli” value is recorded as “antibacterial activity”.

With `O=Cc1cc(O)ccc1O` [2,5-dihydroxybenzaldehyde], the “antibacterial activity against Escherichia coli” value is recorded as “antibacterial activity”.

Turning to `COc1cccc(C=O)c1O` [2-hydroxy-3-methoxybenzaldehyde], the “antibacterial activity against Escherichia coli” value was “antibacterial activity”.

For `COc1ccc(O)c(C=O)c1` [2-hydroxy-5-methoxybenzaldehyde], the “antibacterial activity against Escherichia coli” value is reported as “antibacterial activity”.

For the molecule `O=Cc1ccccc1O` [2-hydroxybenzaldehyde], the “antibacterial activity against Escherichia coli” value is given as “antibacterial activity”.

`COc1cc(O)cc(OC)c1C=O` [4-hydroxy-2,6-dimethoxybenzaldehyde]: the “antibacterial activity against Escherichia coli” value is given as “antibacterial activity”.

The same data set, now with this note: stated as known; cited from earlier work.
`O=Cc1ccc(O)cc1` [4-hydroxybenzaldehyde]: the “antimicrobial activity against Escherichia coli” value is reported as “antimicrobial activity”.

Consider `O=Cc1ccc(CO)o1` [5-hydroxymethylfurfural], for which the “antimicrobial activity against Escherichia coli” value is listed as “antimicrobial activity”.

As to `O=Cc1ccco1` [furfural], the “antimicrobial activity against Escherichia coli” value is “antimicrobial activity”.

Regarding `COc1cc(C=O)cc(OC)c1O` [syringaldehyde], the “antimicrobial activity against Escherichia coli” value is on record as “antimicrobial activity”.

Turning to `COc1cc(C=O)ccc1O` [vanillin], the “antimicrobial activity against Escherichia coli” value was “antimicrobial activity”.
